Laboratory results published in paper PMC9247443 (Frontiers in Pharmacology, 2022).
Where “and” joins values, the source holds several entries; their conditions need not be identical. Equal values may be shown once.

Tests used:
human S1P1 [1] = target: T1, human S1P1 (Homo sapiens, UniProt P21453); assay: S1P1-mediated β-arrestin recruitment assay (PathHunter eXpress EDG1 CHO-K1); assay type: cell-based; settings: for Emax: CHO-K1, read-out: β-arrestin recruitment Intrinsic Activity, human S1P1; for EC50: EDG1(S1P1)/β-arrestin CHO-K1 cells, 90 min, mean ± SEM (n = 3–5) or SD (n = 2)
T1 sequence (P21453 whole entry): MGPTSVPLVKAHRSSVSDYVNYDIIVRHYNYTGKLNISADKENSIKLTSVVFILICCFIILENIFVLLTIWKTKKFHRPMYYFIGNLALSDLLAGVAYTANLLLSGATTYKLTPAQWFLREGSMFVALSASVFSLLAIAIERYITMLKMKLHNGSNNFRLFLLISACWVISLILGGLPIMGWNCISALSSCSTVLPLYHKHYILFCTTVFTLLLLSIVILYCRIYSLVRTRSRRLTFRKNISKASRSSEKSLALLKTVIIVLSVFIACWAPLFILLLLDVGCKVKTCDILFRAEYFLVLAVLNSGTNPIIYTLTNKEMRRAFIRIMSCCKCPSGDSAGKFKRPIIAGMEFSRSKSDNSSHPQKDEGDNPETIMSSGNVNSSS
Experimental: Human S1P1 β-arrestin assays were carried out using the PathHunter® eXpress EDG1 CHO-K1 β-arrestin GPCR Assay (DiscoverX, Cat# 93-0207E2, including frozen cell stock, assay media, and assay plate). EDG1(S1P1)/β-arrestin CHO-K1 cells were thawed by adding 0.5 ml warm media to the vial. The cells were then transferred to 11.5 ml warm media, seeded at a density of 10,000 cells per well in a 96 well assay plate in a volume of 100 μL per well and incubated overnight in a 37°C CO2 incubator. […] Compounds were then added to the EDG1(S1P1)/β-arrestin CHO-K1 cells—10 μl per well of the 11X stock was added to the 100 ul per well of cells and the plate was incubated for 90 min in a 37°C CO2 incubator. The detection solution was prepared according to the manufacture’s protocol and 55 μl was added to each well of assay plate. The plate was then incubated for 1 h at room temperature before being read on a SpectraMax5 plate reader. Basal β-arrestin recruitment was determined using medium containing DMSO alone.

human S1P3 = target: T2, human S1P3 (Homo sapiens, UniProt Q99500); assay: [^35S]-GTPγS binding; assay type: biochemical; settings: mean ± SEM; for EC50: [^35S]-GTPγS binding, CHO cell membranes; for Human S1P3 IA: intrinsic activity relative to maximal S1P response (100%)
T2 construct: membrane preparation
T2 sequence (Q99500 whole entry): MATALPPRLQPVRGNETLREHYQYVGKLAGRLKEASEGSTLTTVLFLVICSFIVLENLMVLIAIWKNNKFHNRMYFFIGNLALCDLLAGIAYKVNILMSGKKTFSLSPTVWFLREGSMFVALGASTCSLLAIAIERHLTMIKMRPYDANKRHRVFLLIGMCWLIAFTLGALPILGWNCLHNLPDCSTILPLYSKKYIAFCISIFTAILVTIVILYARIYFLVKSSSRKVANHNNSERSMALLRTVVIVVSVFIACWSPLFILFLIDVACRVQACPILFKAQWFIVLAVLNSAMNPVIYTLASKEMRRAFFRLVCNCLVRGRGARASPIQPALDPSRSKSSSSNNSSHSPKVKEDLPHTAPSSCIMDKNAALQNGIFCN
Source text: (§1) Stable clones of Chinese hamster ovary (CHO) cells expressing human S1P1 and S1P5 were generated by transfecting the cells with the N-terminal hemagglutinin-tagged receptor in pcDNA3.1 expression vectors followed by antibiotic selection for S1P1 and S1P5 and picking of clones using cyclic adenosine monophosphate assay, fluorescence-activated flow cytometry using the associated tag as well as functional [^35S]-GTPγS binding assays. Stable clones of CHO cells expressing human S1P2, S1P3, and S1P4 with an N-terminal FLAG tag were purchased from Multispan, Inc. (Hayward, CA, United States; catalog numbers C1051-1, CG1049-1, and CG1052-1 for S1P2, S1P3, and S1P4, respectively). Cells were grown to confluence in adherent culture in 500-cm^2 culture trays before being detached with cell scraper in cell-lifting buffer (10 mM HEPES/154 mM NaCl/6.85 mM ethylenediaminetetraacetic acid [EDTA], pH 7.4) and pelleted by centrifugation for 5 min at 1000 rpm. Cell pellets were then resuspended and homogenized in membrane preparation buffer (10 mM HEPES/10 mM EDTA, pH 7.4) using a Polytron PT 1200E homogenizer (Kinematica, Luzern, Switzerland). To collect the membrane pellet, cell homogenates were centrifuged at 48,000 × g at 4°C for 30 min. After discarding the supernatant, the pellet was rehomogenized and recentrifuged as described above. The final pellet was collected and homogenized in ice-cold resuspension buffer (10 mM HEPES and 0.1 mM EDTA, pH 7.4).
(§2) To quantitate receptor activation and G protein coupling, [^35S]-GTPγS binding assays were performed in 96-well nonbinding surface plates (Corning, New York, New York, United States; catalog number 3604) in a final volume of 200 μl. Test compounds were serial diluted in DMSO directly to the assay plate using the Tecan D300E digital printer in a total volume of 0.4 μl. […] All wells were brought to a total volume of 40 μl with assay buffer, and the reaction was initiated by the addition of 120 μl/well of assay buffer containing a mixture of 40 μg/ml S1P1–S1P5 membranes, 5–50 μM GDP (5 μM for S1P2 and S1P4, 16.67 μM GDP for S1P1 and S1P5, and 50 μM for S1P3), and 2.5 mg/ml of WGA PVT SPA beads (Perkin Elmer catalog number RPNQ0001). Assay plates were sealed and incubated at room temperature with gentle agitation for 30 min before adding 40 μl/well of 5× [^35S]-GTPγS (200 p.m. final) (Perkin Elmer, catalog number NEG030X250UC) in basic assay buffer (20 mM HEPES/10 mM MgCl2/100 mM NaCl/1 mM EDTA, pH 7.4) and then plates were resealed for an additional 40-min incubation at room temperature with gentle agitation. The experiment was terminated by centrifugation of the plates at 1000 rpm for 3 min using an Eppendorf (Hamburg, Germany) 5810R centrifuge and read on the MicroBeta2 microplate scintillation counter. Data were analyzed as raw counts per 40 s per well as collected from the MicroBeta2 counter. Raw counts were analyzed with GraphPad Prism version 8.0.0 using nonlinear regression to generate concentration response curves.

human S1P1 [2] = target: T1, human S1P1; assay: [^35S]-GTPγS binding; assay type: biochemical; settings: mean ± SEM; for EC50: [^35S]-GTPγS binding, CHO cell membranes; for Human S1P1 IA: intrinsic activity relative to maximal S1P response (100%)
Source text: as §1, §2

human S1P4 = target: T3, human S1P4 (Homo sapiens, UniProt O95977); assay: [^35S]-GTPγS binding; assay type: biochemical; settings: mean ± SEM; for EC50: [^35S]-GTPγS binding, CHO cell membranes; for Human S1P4 IA: intrinsic activity relative to maximal S1P response (100%)
T3 construct: membrane preparation
T3 sequence (O95977 1-384): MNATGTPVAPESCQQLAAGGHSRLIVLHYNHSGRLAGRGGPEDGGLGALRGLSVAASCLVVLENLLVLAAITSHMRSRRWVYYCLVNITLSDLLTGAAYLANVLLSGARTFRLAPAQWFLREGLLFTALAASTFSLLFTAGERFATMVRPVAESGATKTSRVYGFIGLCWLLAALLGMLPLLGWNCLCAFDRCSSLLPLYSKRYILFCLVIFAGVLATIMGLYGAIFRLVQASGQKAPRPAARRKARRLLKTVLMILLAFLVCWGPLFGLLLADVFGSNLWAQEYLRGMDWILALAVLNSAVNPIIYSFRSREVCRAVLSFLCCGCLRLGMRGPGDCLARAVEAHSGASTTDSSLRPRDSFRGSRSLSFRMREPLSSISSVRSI
Source text: as §1, §2

human S1P5 [3] = target: T4, human S1P5 (Homo sapiens, UniProt Q9H228); assay: [^35S]-GTPγS binding; assay type: biochemical; settings: for EC50: [^35S]-GTPγS binding, CHO cell membranes; for EC50 / Human S1P5 IA: mean ± SEM; for Human S1P5 IA: intrinsic activity relative to maximal S1P response (100%)
T4 sequence (Q9H228 whole entry): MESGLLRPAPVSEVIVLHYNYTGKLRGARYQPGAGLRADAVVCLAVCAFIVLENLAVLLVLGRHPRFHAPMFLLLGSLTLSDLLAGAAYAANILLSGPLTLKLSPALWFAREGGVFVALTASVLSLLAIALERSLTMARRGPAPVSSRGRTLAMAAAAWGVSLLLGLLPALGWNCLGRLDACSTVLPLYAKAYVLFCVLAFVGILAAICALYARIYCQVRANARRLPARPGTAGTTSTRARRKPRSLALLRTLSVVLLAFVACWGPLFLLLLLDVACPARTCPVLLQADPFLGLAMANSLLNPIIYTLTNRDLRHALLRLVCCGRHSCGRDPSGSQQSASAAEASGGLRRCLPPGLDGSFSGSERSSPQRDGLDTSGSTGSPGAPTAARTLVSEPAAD
Source text: as §1, §2

human S1P2 = target: T5, human S1P2 (Homo sapiens, UniProt O95136); assay: [^35S]-GTPγS binding; assay type: biochemical; settings: mean ± SEM; for EC50: [^35S]-GTPγS binding, CHO cell membranes; for Human S1P2 IA: intrinsic activity relative to maximal S1P response (100%)
T5 construct: membrane preparation
T5 sequence (O95136 whole entry): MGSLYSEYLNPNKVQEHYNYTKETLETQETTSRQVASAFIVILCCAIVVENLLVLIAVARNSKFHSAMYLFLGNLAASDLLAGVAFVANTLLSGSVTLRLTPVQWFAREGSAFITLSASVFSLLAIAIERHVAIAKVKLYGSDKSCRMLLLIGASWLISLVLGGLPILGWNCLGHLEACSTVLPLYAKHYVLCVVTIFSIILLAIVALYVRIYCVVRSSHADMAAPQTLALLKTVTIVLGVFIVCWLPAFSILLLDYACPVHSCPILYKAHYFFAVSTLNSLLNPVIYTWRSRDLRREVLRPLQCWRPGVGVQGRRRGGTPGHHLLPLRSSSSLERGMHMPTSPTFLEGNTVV
Source text: as §1, §2

human S1P1 [4] = target: T1, human S1P1; assay: [^3H]-ozanimod competition radioligand binding
Source text: as §1
(§3) Assay plates were sealed and incubated at room temperature with gentle agitation for 60 min before filtration as described above.
(§4) Data were again analyzed as raw counts per 60 s per well collected from the MicroBeta2 counter.

human S1P5 [5] = target: T4, human S1P5; assay: [^3H]-ozanimod competition radioligand binding
Source text: as §1, §3, §4

SMILES	Emax (human S1P1 [1])	EC50 (human S1P1 [1])	EC50 (human S1P3)	Human S1P3 IA (human S1P3)	EC50 (human S1P1 [2])	Human S1P1 IA (human S1P1 [2])	EC50 (human S1P4)	Human S1P4 IA (human S1P4)	EC50 (human S1P5 [3])	Human S1P5 IA (human S1P5 [3])	Human S1P5 IA (human S1P5 [3]; listed as amiselimod-p)	EC50 (human S1P2)	Human S1P2 IA (human S1P2)	Ki (human S1P1 [4])	Ki (human S1P5 [5])	GTPγS potency for human S1P5 weaker than that for S1P1 (human S1P5 [3]; S1P5 versus S1P1 EC50)
CCCCCCCOc1ccc(CCC(N)(CO)COP(=O)(O)O)cc1C(F)(F)F (stereo not drawn) [Amiselimod-p]	76.1 ± 11.6%	2.83 ± 2.21 nM	19 ± 2.98 nM	29.1 ± 1.6%	0.15 ± 0.01 nM	84.1 ± 1.6%	2.23 ± 0.13 nM	122.2 ± 3.6%	0.58 ± 0.08 nM	76.6 ± 6.9%	76.6%	> 4000 nM	NR (NR indicates no response where the maximal response was less than 10% of that of S1P)	0.13 ± 0.02 nM	0.25 ± 0.04 nM	–
O=C(O)C[C@H]1CCc2c1[nH]c1ccc(OCc3ccc(C4CCCC4)c(C(F)(F)F)c3)cc21 [Etrasimod]	75.8 ± 1.8%	11.3 ± 2.32 nM	1160 ± 354 nM	81.2 ± 17%	5.48 ± 0.46 nM	86.6 ± 1.1%	1130 ± 189 nM	40.4 ± 4.6%	58.9 ± 6.75 nM	82 ± 4.4%	–	> 10000 nM	NR (NR indicates no response where the maximal response was less than 10% of that of S1P)	6.73 ± 0.62 nM	16.3 ± 0.71 nM	approximately 10 fold
CCCCCCCCc1ccc(CCC(N)(CO)COP(=O)(O)O)cc1 (stereo not drawn) [FTY720-p, FTY720-phosphate]	79.8 ± 4.3%	–	–	106.5 ± 8.3%	–	84.9 ± 2.3%	2.06 ± 0.3 nM	59.2 ± 5.4%	–	74% and 74 ± 5.1%	–	–	33.2 ± 1%	–	–	–
NC(CO)(CCc1ccc(Sc2cccc(OCc3ccccc3)c2)cc1Cl)COP(=O)(O)O (stereo not drawn) [KRP-203-p, KRP-203-phosphate]	72.3 ± 5.4%	2.98 ± 0.96 nM	3.17 ± 0.26 nM	25.7 ± 3.8%	0.26 nM	85.7 ± 3.6%	3.13 ± 0.29 nM	56.3 ± 3.8%	0.69 ± 0.19 nM	45.8 ± 7.6%	–	> 10000 nM	NR (NR indicates no response where the maximal response was less than 10% of that of S1P)	0.22 ± 0.02 nM	0.24 ± 0.04 nM	–
